From patent EP3181118B1, “SYNERGISTIC COMBINATION OF TXNR INHIBITORS AND ASCORBATE FOR TREATMENT OF B CELL MALIGNANCIES” (Warszawski Uniwersytet Medyczny, priority 2015, dated 2017)
Like-named read-outs stand apart in the source and are kept apart here.

Columns and labels:
Raji cells [1] = experiment: MTT assay, cytostatic/cytotoxic effects; assay type: cell-based, human; conditions: 48 hours, Fig. 1
Method: Raji cells were grown in RPMI medium supplemented with 10% fetal bovine serum and antibiotic/antimycotic solution. Raji cells were incubated for 15 min at 37 °C with 100 µM or 200 µM L-ASC and then TXNR inhibitors, SK053 or AUR, were added and the cells were cultured for additional 48 hours. Cytostatic/cytotoxic effects of treatment were assessed by:
(a) MTT (3-[4,5-dimethylthiazol-2-yl]-2,5-diphenyltetrazolium bromide) assay
20 µl of MTT (5mg/ml in PBS) was added to 100 µl of cells and maintained in cell culture conditions. After 2 hours, 100 µl of solubilization buffer (10% SDS, 0,01N HCl) was added to each well and plates were maintained in a cell culture incubator overnight. The absorbance was measured at 560 nm using a microplate reader (ASYS UVM 340, Biochrom). The relative viability was calculated according to the following formula: % viability = [(Am - Ab)/(Ac - Ab)] × 100%, where Am is the measured absorbance, Ab is the background absorbance, and Ac is the absorbance of vehiculum-treated controls (DMSO).

[2] = cited from earlier work
adult rats = conditions: cited from earlier work
adult mice = conditions: cited from earlier work
[3] = test system: normal B cells isolated from human tonsils; experiment: Non-viable cells by propidium iodide staining in normal B cells; assay type: cell-based; conditions: TXNR inhibitor in combination with L-ASC, 48 hours, three healthy donors, Fig. 5
Method: Human tonsils were derived from subjects undergoing tonsillectomy. After resection, tonsils were cut into small pieces and incubated in the RPMI medium supplemented with collagenase and DNase for 30 min at 37 °C with gentle shaking and filtered through 70 µm cell strainer. After washing in PBS, mononuclear cells were isolated with Histopaque 1077 density gradient and subjected to CD19 negative selection using EasySep™ Human B Cell Enrichment Kit ([…] Technologies). The purity of isolated B cells exceeded 95%. Subsequently, B cells were suspended in RPMI medium supplemented with 10% fetal bovine serum and antibiotic/antimycotic solution, and incubated with L-ASC, SK053, AUR, exactly as Raji cells (described in Example 1). After 48 hours of incubation, the number of non-viable cells was determined by flow cytometry, as the fraction of propidium iodide positive cells. […] This experiment was repeated in three different healthy donors.

Raji cells [4] = experiment: Number of dead cells by propidium iodide staining, flow cytometry; assay type: cell-based, human; conditions: 48 hours, Fig. 2; for propidium iodide-positive cells (dead cells): compound alone (L-ASC 100 µM)
Method: Raji cells were grown in RPMI medium supplemented with 10% fetal bovine serum and antibiotic/antimycotic solution. […] Cytostatic/cytotoxic effects of treatment were assessed by:
(b) Quantitation of the number of dead cells with propidium iodide staining using flow cytometry
100 µl of cells were mixed with 100 µl of propidium iodide solution (4 µg/ml in PBS) and the number of propidium iodide-positive cells (dead cells) was assessed using flow cytometer Accuri C6.

advanced cancers = conditions: patients with advanced cancers, L-ASC-treated subjects; cited from earlier work
lymphoma cells = lymphoma cells in vitro; cited from earlier work
Raji cells [5] = experiment: Intracellular ROS level, CM-H2-DCFDA fluorescent probe, flow cytometry; assay type: cell-based, human
Method: The level of intracellular ROS in Raji cells treated with L-ASC and SK053 alone or in combination was evaluated. Raji cells were loaded with CM-H2-DCFDA fluorescent probe (Molecular Probes) according to the manufacturer's protocol, using 1 µM dye concentration for 30 min. at 37 °C. […] After 8 hours cells were harvested in PBS and the intensity of green fluorescence was analyzed by flow cytometry (Accuri C6).

[6] = cited from earlier work; remark: listed apart in the source
Raji cells [7] = experiment: Comparison of ascorbate stereoisomers and oxidized form combined with TXNR inhibitors (Fig. 3); assay type: cell-based, human; conditions: ascorbate form combined with SK053 or AUR

## CC(=O)OC[C@H]1O[C@@H]([S-])[C@H](OC(C)=O)[C@@H](OC(C)=O)[C@@H]1OC(C)=O.CCP(CC)CC.[Au+] [AUR, (2,3,4,6-tetra-O-acetyl-1-thio-β-D-glucopyranosato-S-) (triethyl-phosphine) gold complex]
Raji cells [1]; in combination with 100 µM or 200 µM L-ASC
  cytostatic/cytotoxic effects of TXNR inhibitor in combination with L-ASC: remarkably increased the cytostatic/cytotoxic effects
[2]; by day 10, total
  labelled gold excreted: 77%
[2]; by day 10
  labelled gold excreted with feces: 73%
  labelled gold excreted with urine: 4%
[2]; in blood
  AUR gold bound to red blood cells: approximately 40%
  AUR gold bound to serum proteins: 60%
[2]; oral, radiolabelled AUR
  oral dose absorbed: approximately 25%
  peak plasma concentrations: 0.3 to 0.4 µM
  time to reach peak plasma concentrations: 1 to 2 h
[2]; radiolabelled AUR
  mean plasma half-life: 17 days
[2]; six months after a single dose
  labelled gold retained in the body: 0,4%
Adult rats; adult rats, oral
  acute oral LD50: 265 mg/kg
Adult rats; rats
  minimum lethal dose: 30 mg/kg
Adult mice
  acute oral LD50: 310 mg/kg
[3]
  synergistic cytotoxic effect with L-ASC, fraction of propidium iodide positive cells: synergistic cytotoxic effect between none of the TXNR inhibitors and L-ASC was observed
Raji cells [4]; TXNR inhibitor in combination with 100 µM L-ASC
  dead cells: ~100%
Raji cells [4]
  propidium iodide-positive cells (dead cells): < 10%

## O=C1O[C@H]([C@@H](O)CO)C(O)=C1O [L-ASC, L-ascorbate]
Raji cells [1]; L-ASC alone at 100 µM and 200 µM
  viability of Raji cells: did not affect the viability
Advanced cancers
  increased mean survival time (MST): over 4 fold
Lymphoma cells
  LD50: ~0,5 mM
Raji cells [5]; compound alone, with 100 µg/ml catalase, Fig. 4B
  ROS levels in the presence of catalase: at the control levels
Raji cells [5]; compound alone: 100 µM ASC or 20 µM SK053, 8 hours, Fig. 4A
  ROS levels: only slightly increased ROS levels
[6]; high oral doses
  plasma concentration: approximately 220 µM
[6]; intravenous (i.v.) delivery
  L-ASC plasma concentrations: up to 20 mM
[6]; oral administration, maximal
  L-ASC plasma concentrations: ≤ 300 µM
[6]; slow i.v. infusion of high doses
  peak plasma concentrations: over 10 mM
Raji cells [4]
  propidium iodide-positive cells (dead cells): < 10%

## O=C1O[C@H]([C@@H](O)CO)C(=O)C1=O [L-DHA, dehydroascorbic acid]
Raji cells [7]
  interaction with TXNR inhibitors (SK053, AUR), cytotoxicity to Raji cells: had no impact on cytotoxicity
